# Key:
# [1] = tested on: neurones corticaux primaires de rat; test: Survival of primary cortical neurons intoxicated with Aβ 1-42 peptide (MAP-2 staining); assay type: cell-based; settings: pre-incubated 1 h before Aβ 1-42 20 µM
# Text: (§1) Le but de cette étude est d'évaluer les effets de l'acide léontopodique B1 sur des neurones corticaux primaires de rat, intoxiqués par le peptide Aβ selon le modèle in vitro de la maladie d'Alzheimer décrit dans Callizot et al., 2013 (Callizot N. et al., Operational dissection of β-amyloid cytopathic effects on cultured neurons. J Neurosci Res. 2013, 91: 706-16). La survie des neurones et des astrocytes ainsi que l'intégrité du réseau de neurites sont évaluées.
# (§2) Des neurones corticaux de rat sont cultivés comme décrit dans Singer et al., 1999 (Singer C. et al., Mitogen-activated protein kinase pathway mediates estrogen neuroprotection after glutamate toxicity in primary cortical neurons. J Neurosci. 1999, 19: 2455-2463) et Callizot et al. (2013).
# (§3) En résumé, des rats femelles gravides sont tuées par dislocation cervicale après 15 jours de gestation. Les fœtus sont collectés et immédiatement placés dans un milieu glacé L15 Leibovitz (Pan Biotech, Batch: 8810315) additionné de 2% pénicilline (10,000 U/mL) et d'une solution de streptomycine (10 mg/mL) (PS; Pan Biotech, batch: 1451013) et 1% de albumine de sérum de bovin (BSA; Pan Biotech, batch: K180713). Le cortex est traité pendant 20 min à 37°C avec une solution de trypsine- EDTA (Pan Biotech, Batch: 3330914) à une concentration finale de 0,05% trypsine et 0,02% EDTA. […]
# [2] = tested on: réseau de neurites de neurones corticaux primaires; test: Neurite network of primary cortical neurons intoxicated with Aβ 1-42 peptide (MAP-2 staining); assay type: cell-based, rat; settings: two lowest concentrations 10 nM, 100 nM; pre-incubated 1 h before Aβ 1-42 20 µM, 24 h (Figure 2)
# Text: as §1, §2, §3
# [3] = tested on: astrocytes sains (non traités par le peptide Aβ 1-42); test: Proliferation of pure healthy astrocytes (MTT test, CellTiter 96 Aqueous One Solution); assay type: cell-based, rat (Wistar); settings: 4 days incubation, no Aβ 1-42 (Figure 4)
# Protocol: En résumé, le cerveau entier d'un embryon âgé de 15 jours de rat (Wistar) est prélevé. Le cerveau entier est dissocié par trypsinisation. Les cellules sont suspendues dans un milieu de culture du milieu DMEM (Dulbecco's modified Eagle's medium) complémenté avec 2% de pénicilline (10,000 U/mL) et d'une solution de streptomycine (10 mg/mL), et 10% de sérum de veau fœtal (FCS). Les cellules sont ensemencées à une densité de 267 000 cellules par cm^2 dans un flacon de culture. Au stade de la confluence cellulaire, le flacon est secoué pendant 3 heures. Le surnageant de la culture cellulaire est enlevé, les cellules sont traitées par une solution de trypsine- EDTA (Pan Biotech) à une concentration finale de 0,05% trypsine et de 0,02% EDTA. Ensuite les cellules sont congelées afin de constituer une lignée cellulaire d'astrocytes.
# Les astrocytes (au stade : P4) sont ensemencées à une densité de 4 000 par puits d'une plaque de 96 puits avec de l'acide léontopodique B1 (dissous à différentes concentrations : 100 nM, 1 µM, 10 µM et 50 µM dans le milieu de culture) et sont cultivées à 37°C dans un incubateur contenant 95% d'air et 5% de CO2. Le milieu est changé tous les jours. Les astrocytes sont cultivés pendant 4 jours en présence d'acide léontopodique B1 avant de mesurer son effet sur la prolifération des astrocytes. […]
# [4] = tested on: astrocytes; test: Survival of astrocytes in primary cortical neuron culture intoxicated with Aβ 1-42 peptide (GFAP staining); assay type: cell-based, rat; settings: Aβ 1-42 20 µM, 24 h (Figure 3)
# Text: as §1, §2, §3
structure (smiles),measurement,setting,value
"O=C(/C=C/c1ccc(O)c(O)c1)OC(C(=O)O)C(OC(=O)/C=C/c1ccc(O)c(O)c1)C(OC(=O)/C=C/c1ccc(O)c(O)c1)C(O)C(=O)O (stereo not shown) [acide léontopodique B1, acide 3,4,5-tricaféoylhexarique]",effet sur la survie des neurones,"[1]; 10 nM, 100 nM, 1 µM, 10 µM, 24 h, protective effect follows a bell-shaped curve (Figure 1)",effet significatif et important
same,mort neuronale,"[1]; 100 nM and 1 µM, 24 h (Figure 1)",aucune mort neuronale n'a été observée
same,effet sur le réseau de neurites,[2],effet significatif et important
same,effet sur la prolifération des astrocytes,[3]; 100 nM up to 50 µM,aucun effet significatif
same,concentration cellulaire,[3]; highest concentration 50 µM,légère mais non significative diminution
same,effet sur la survie des astrocytes,[4]; all concentrations (10 nM to 10 µM),effet protecteur
same,mort cellulaire (astrocytes),"[4]; three highest concentrations 100 nM, 1 µM, 10 µM",Aucune mort cellulaire n'a été observée

# Reference: patent EP3544951B1, “SUBSTITUTED HEXARIC ACID DERIVATIVES AND USES THEREOF” (Plant Advanced Technologies Pat, priority 2016, dated 2018)
